We go through 1 compound from ChEMBL document CHEMBL5096216, “Rational Design, Synthesis, and Biological Evaluation of Novel S1PR2 Antagonists for Reversing 5-FU-Resistance in Colorectal Cancer” (J Med Chem, 2022).

A short description of data set [1]: Metabolic stability in rat plasma assessed as half life at 1 mg/ml incubated for 48 hrs by HPLC analysis. The class given is ADME, cell-free.
Data set [2] relates to SW620/5-FU. The data set can be described thus: Antitumor activity against human SW620/5-FU cells xenografted in nude mouse assessed as tumor wight at 1 mg/kg/day, iv in presence of 5-FU (reference value: 1.3 +/-0.6 g). The class given is functional.
Data set [3] has as its system SW620/5-FU. The data set can be described thus: Induction of apoptosis in human SW620/5-FU cells assessed as necrotic cells at 10 uM incubated for 24 hrs in presence of 5-FU by Annexin-V/PI staining based flow cytometry assay (reference value: 0%). Type of data set: functional.
Data set [4] deals with SW620/5-FU. Nature of the data set: Antitumor activity against human SW620/5-FU cells xenografted in nude mouse assessed as tumor volume at 1 mg/kg/day, iv measured on day 15 in presence of 5-FU (reference value: 1991 +/- 469 mm3). The class given is functional. Conditions: time 15 day.
Data set [5] concerns SW620/5-FU. The data set can be described thus: Upregulation of H3K27me3 expression in human SW620/5-FU cells incubated for 12 hrs by Western blot analysis. Type of data set: functional, cell-based. Conditions: dose 2.5-20 µM, DDE = dose-dependent effect.
The test system of the next data set is HCT-116. The data set can be described thus: Reversal of 5-FU resistance in human HCT-116 cells overexpressing DPD assessed as fold reduction in 5-Fluorouracil IC50 at 5 uM incubated for 48 hrs. Type of data set: functional.
Data set [6] has as its system SW620/5-FU. The data set can be described thus: Antitumor activity against human SW620/5-FU cells xenografted in nude mouse assessed as tumor growth inhibition at 10 mg/kg/day, iv in presence of 5-FU. Conditions: read-out: TGI. Type of data set: functional.
The next data set deals with HT-29. The data set can be described thus: cells. Conditions: Homo sapiens, HT-29, 48 h.
Data set [7] concerns SW620/5-FU. Nature of the data set: Downregulation of JMJD3 expression in human SW620/5-FU cells incubated for 12 hrs by Western blot analysis. Conditions: dose 2.5-20 µM, DDE = dose-dependent effect. The class given is functional, cell-based.
The target of data set [8] is Sphingosine 1-phosphate receptor 3 (Homo sapiens, UniProt Q99500). The data set can be described thus: Binding affinity to S1PR3 (unknown origin) assessed as dissociation constant by surface plasmon resonance analysis.

Structures are written as SMILES.

Sphingosine 1-phosphate receptor 3, sequence (Q99500 whole entry): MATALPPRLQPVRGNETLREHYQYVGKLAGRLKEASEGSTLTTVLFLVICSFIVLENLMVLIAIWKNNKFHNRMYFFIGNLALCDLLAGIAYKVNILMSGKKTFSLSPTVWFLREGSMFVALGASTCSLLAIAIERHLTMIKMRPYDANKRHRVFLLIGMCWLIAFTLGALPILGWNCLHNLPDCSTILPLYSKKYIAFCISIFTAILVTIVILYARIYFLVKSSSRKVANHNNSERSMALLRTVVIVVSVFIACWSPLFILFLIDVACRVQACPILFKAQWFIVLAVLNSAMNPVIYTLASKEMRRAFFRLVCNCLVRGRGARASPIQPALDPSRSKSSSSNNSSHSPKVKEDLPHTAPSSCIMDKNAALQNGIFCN
Description for HT-29: Reversal of 5-FU resistance in human HT-29 cells assessed as reduction in 5-Fluorouracil IC50 at 2 uM incubated for 48 hrs (Rvb = 2768.36 +/- 89.25 %)

`CCC(CC)CN1CCN(C(=O)Nc2cc(Oc3ccc(F)cc3)cc(Oc3ccc(C(=O)NC)cc3)c2)CC1`: the half-life at 1 mg/ml in [1] was more than 48 h. For the same compound, the Activity with SW620/5-FU [2] was 0.6 g; in the data set with SW620/5-FU [3], 0.17%; with SW620/5-FU [4] it was 1006 mm3; in the data set with SW620/5-FU [5], “Dde”; with SW620/5-FU [7], “Dde”. Also, the “fold change (FC)” value with HCT-116 was 41. Moreover, the inhibition in vivo at 10 mg/kg/day in the data set on SW620/5-FU [6] came to 73.8%. The compound also gave a concentration for half-maximal inhibition (IC50) with HT-29 of 42.1 µM. Besides, the dissociation constant (Kd) in data set [8] is more than 0.1 µM.
